# Results taken from patent publication US8324264B1, “Inhibitors of bacterial biofilms and related methods” (Sequoia Sciences, Inc., priority 2011, dated 2012).
# Tests used:
# Pseudomonas syringae = test: Biofilm growth assay, plant pathogen Pseudomonas syringae; type: cell-based; settings: M8 salts, 0.7% glucose, 0.5% Noble agar, 30° C., 24 to 48 hours
# Salmonella spp. = test: Biofilm growth assay, Salmonella spp.; type: cell-based; settings: Table 6, n = 6 isolates; Nutrient Broth, 0.5% glucose, 0.5% Noble agar
# Method: The biofilm growth assay was carried out to measure swarming or biofilm spreading on semi-solid agar media in round plates (for example, 100×15 mm), also referred to as Petri dishes. For E. coli, the plates contained LB medium with 0.6% agar and 0.5% glucose. P. aeruginosa plates were made with M8 agar supplemented with 0.2% glucose, 100 μM CaCl2, 1 mM MgSO4, and 0.5% Casamino acids. The agar plates of this assay consisted of 0.4% to 0.7% agar (Bacto or Noble agar), although other media may also be used as described in the literature and known to those skilled in the art. Test compounds at the desired concentration were added to the cooled, autoclaved media. Portions of the media were then poured into the plates (20 mL/plate), and the plates allowed to dry at room temperature for approximately 3 to 4 hours. Alternatively, however, plates may be dried in a laminar flow hood for approximately fifteen to twenty minutes. Overnight cultures were grown in a 37° C. shaker in LB (E. coli) or TSB (P. aeruginosa). Plates were inoculated by placing 5 μL of the appropriate overnight culture in the centers of the plates. The plates then were incubated overnight at 37° C. The area of the zone of spreading bacteria was then measured and replicates are averaged. Percent inhibition was calculated as 100×(area without compound−area with compound)/(area without compound). An active compound was considered that which reduces the area of the spreading biofilm compared to negative controls by greater than or equal to 85%. The values shown in Table 1 are the concentrations of compounds (μg/ml) tested in the biofilm growth assay that reduce the area of the spreading biofilm compared to negative controls by greater than or equal to 85% unless noted differently in Table 1. A > (“greater than” symbol) as used in Table 1 is well understood to those skilled in the art as an indication that the listed concentration was not effective at this concentration.
# (§1) Table 6, below, lists the inhibitory concentrations of select compounds and antibiotics in the biofilm growth assay against various gram-negative bacterial biofilms. “N” means the number of isolates of bacteria tested. The biofilm growth assay procedure detailed in Example I, above, was followed. Burkholderia cepacia used media consisting of M9 salts, 100 μM CaCl2, 1 mM MgSO4, and 0.7% citrate in 0.4% Noble agar. Salmonella spp. used media consisting of Nutrient Broth with 0.5% glucose in 0.5% Noble agar.
# E. coli biofilms = test: Biofilm growth assay (spreading biofilm on semi-solid agar), E. coli; type: cell-based; design: E. coli (n = 10) inhibitory concentration in the biofilm growth assay: unit: ug/mL
# Procedure, shortened: (§2)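 Compound added to semi-solid agar: M8 with 0.2% glucose, 100 μM CaCl2, 1 mM MgSO4, 0.5% Casamino acids (P. aeruginosa) or LB with 0.6% agar, 0.5% glucose (E. coli). Center-inoculated with 5 μL overnight culture, incubated overnight at 37 °C; value is concentration (μg/ml) reducing spreading area ≥85% versus negative controls.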
# P. aeruginosa biofilms [1] = test: Biofilm Growth Assay with compound in half of the agar and antibiotic disks; type: cell-based; settings: 0.125 μg/ml in agar with colistin 10 μg disks
# Method: The Biofilm Growth Assay as described in Example VII was performed in round plates with the compounds of the invention in agar on half of the plate and antibiotic disks placed onto the agar containing the compounds of the invention.
# The Biofilm Growth Assay was performed as described in Example VIII. 2 to 4 antibiotic disks were placed onto the agar containing a compound of the invention in a line parallel to the line that separates the two agars in one round plate. Appropriate negative and positive control plates were performed as known to those skilled in the art.
# cysB = settings: as described in U.S. Pat. No. 7,604,978; cited from earlier work
# B. cepacia = test: Biofilm growth assay, Burkholderia cepacia; type: cell-based; settings: Table 6, n = 10 isolates; M9 salts, 0.7% citrate, 0.4% Noble agar
# Method: The biofilm growth assay was carried out to measure swarming or biofilm spreading on semi-solid agar media in round plates (for example, 100×15 mm), also referred to as Petri dishes. For E. coli, the plates contained LB medium with 0.6% agar and 0.5% glucose. P. aeruginosa plates were made with M8 agar supplemented with 0.2% glucose, 100 μM CaCl2, 1 mM MgSO4, and 0.5% Casamino acids. The agar plates of this assay consisted of 0.4% to 0.7% agar (Bacto or Noble agar), although other media may also be used as described in the literature and known to those skilled in the art. Test compounds at the desired concentration were added to the cooled, autoclaved media. Portions of the media were then poured into the plates (20 mL/plate), and the plates allowed to dry at room temperature for approximately 3 to 4 hours. Alternatively, however, plates may be dried in a laminar flow hood for approximately fifteen to twenty minutes. Overnight cultures were grown in a 37° C. shaker in LB (E. coli) or TSB (P. aeruginosa). Plates were inoculated by placing 5 μL of the appropriate overnight culture in the centers of the plates. The plates then were incubated overnight at 37° C. The area of the zone of spreading bacteria was then measured and replicates are averaged. Percent inhibition was calculated as 100×(area without compound−area with compound)/(area without compound). […] A > (“greater than” symbol) as used in Table 1 is well understood to those skilled in the art as an indication that the listed concentration was not effective at this concentration.
# as §1
# Xanthomonas campestris = test: Biofilm growth assay, plant pathogen Xanthomonas campestris; type: cell-based; settings: M8 salts, 0.7% glucose, 0.5% Noble agar, 30° C., 24 to 48 hours
# P. aeruginosa biofilms [2] = test: Biofilm growth assay (spreading biofilm on semi-solid agar), P. aeruginosa; type: cell-based; design: P. aeruginosa (n = 10) inhibitory concentration in the biofilm growth assay: unit: ug/mL
# Procedure, shortened: as §2
# [3] = system: Pectobacterium atrosepticum; test: Biofilm growth assay, plant pathogen Pectobacterium atrosepticum; type: cell-based; settings: M8 salts, 0.7% glucose, 0.5% Noble agar, 30° C., 24 to 48 hours
smiles,measurement,setting,value
"CC1(C)CC[C@]2(C(=O)O)CC[C@]3(C)C(=CCC4[C@@]5(C)Cc6c(n[nH]c6N)C(C)(C)[C@@H]5CC[C@]43C)[C@@H]2C1 (stereo partly drawn) [Compound 1, (4aS,6aS,6bR,13aR)-12-Amino-2,2,6a,6b,9,9,13a-heptamethyl-2,3,4,4a,5,6,6a,6b,7,8,8a,9,11,13,13a,13b,14,15b-octadecahydro-1H-chryseno[1,2-f]indazole-4-a-carboxylic acid]",concentration inhibiting the spreading biofilm of Pseudomonas syringae,Pseudomonas syringae,0.03 µg/mL
same,Salmonella spp. (n = 6) inhibitory concentration in the biofilm growth assay,Salmonella spp.,1
same,IC85,"E. coli biofilms; Escherichia coli, biofilm growth assay, overnight 37° C., vs negative controls, Tables 1-5, read-out: E. coli: concentration that reduces the area of the spreading biofilm by greater than or equal to 85%",1 µg/mL
same,E. coli (n = 10) inhibitory concentration in the biofilm growth assay,"E. coli biofilms; Table 6, n = 10 isolates",1
same,combination with colistin at preventing the growth of P. aeruginosa biofilms (FIG. 2),P. aeruginosa biofilms [1],synergistic
same,modulation of cysB and genes under its control,cysB,modulates cysB and genes under its control
same,B. cepacia (n = 10) inhibitory concentration in the biofilm growth assay,B. cepacia,0.25
same,concentration inhibiting the spreading biofilm of Xanthomonas campestris,Xanthomonas campestris,0.5 µg/mL
same,growth of the spreading P. aeruginosa biofilm (FIG. 1),"P. aeruginosa biofilms [2]; 0.5 μg/ml in agar, overnight 37° C.",prevented the growth
same,optimal working concentration,P. aeruginosa biofilms [2]; P. aeruginosa biofilm growth assay (FIG. 2 legend),0.5 µg/mL
same,IC85,"P. aeruginosa biofilms [2]; Pseudomonas aeruginosa, biofilm growth assay, overnight 37° C., vs negative controls, Tables 1-5, read-out: P. aeruginosa: concentration that reduces the area of the spreading biofilm by greater than or equal to 85%",0.5 µg/mL
same,P. aeruginosa (n = 10) inhibitory concentration in the biofilm growth assay,"P. aeruginosa biofilms [2]; Table 6, n = 10 isolates",1
same,concentration inhibiting the spreading biofilm of Pectobacterium atrosepticum,[3],0.06 µg/mL
